Measurements: PMC5784132, “Investigation of 20S-hydroxyvitamin D3 analogs and their 1α-OH derivatives as potent vitamin D receptor agonists with anti-inflammatory activities” (Scientific Reports, 2018)

Columns and labels:
CYP24A1 gene expression = test: RT-PCR analysis of CYP24A1 expression in HaCaT cells; assay type: cell-based; details: 100 nM, 24 h treatment; for fold induction at 0.1 µM: Homo sapiens, read-out: relative mRNA level for CYP24A1 versus vehicle control
Procedure: Figure 7 20S(OH)D3 analogs upregulate the expression of CYP24A1 encoding the vitamin D catabolic enzyme, CYP24A1, with varying efficiencies. […] The mRNA was isolated and the RT-PCR was performed using specific primers for the CYP24A1 gene (see Methods). Data are presented as mean ± SE (n = 3). *p < 0.05, **p < 0.01 and ***p < 0.001 compared with the control.
HaCaT cells were purchased from Thermo Fisher Scientific (Waltham, MA, USA) and were cultured as for the VDRE reporter assay. The RNA from HaCaT keratinocytes treated with secosteroids or from DMSO controls was isolated using the Absolutely RNA Miniprep Kit (Stratagene, La Jolla, CA, USA). Reverse transcription (100 ng RNA/reaction) was performed with the Transcriptor First Strand cDNA Synthesis Kit (Roche Inc., Mannheim, Germany). Real-time PCR was performed using cDNA diluted 10-fold in sterile water and a SYBR Green PCR Master Mix. The primers for both forward and reverse strands for CYP24A1 were designed based on the mouse and rat sequences using Primer Quest software ([…], San Jose, CA, USA). Reactions (in triplicate) were performed at 50 °C for 2 min, 95 °C for 10 min and then 40 cycles of 95 °C for 15 s, 60 °C for 30 s and 72 °C for 30 s. Data were collected and analyzed on a Roche Light Cycler 480. The amount of the final amplified product for each gene was compared and normalized to the amount of β-actin product as a housekeeping gene using a comparative Ct method.

VDR [1] = target: T1, VDR (Homo sapiens, UniProt P11473); test: VDRE-luciferase reporter assay in HaCaT cells
T1 sequence (P11473 1-427): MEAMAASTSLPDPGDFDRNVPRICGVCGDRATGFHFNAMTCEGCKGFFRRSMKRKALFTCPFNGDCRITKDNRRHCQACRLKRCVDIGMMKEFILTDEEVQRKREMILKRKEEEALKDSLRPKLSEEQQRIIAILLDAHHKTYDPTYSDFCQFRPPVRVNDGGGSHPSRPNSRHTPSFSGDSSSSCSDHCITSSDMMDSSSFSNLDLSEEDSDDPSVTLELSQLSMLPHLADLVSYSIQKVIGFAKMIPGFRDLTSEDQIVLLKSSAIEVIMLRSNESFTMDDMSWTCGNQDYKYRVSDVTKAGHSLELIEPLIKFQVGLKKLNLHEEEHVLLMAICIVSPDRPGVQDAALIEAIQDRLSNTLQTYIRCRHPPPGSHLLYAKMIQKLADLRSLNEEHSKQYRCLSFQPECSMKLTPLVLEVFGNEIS

VDR [2] = target: T1, VDR; test: VDRE-luciferase reporter assay in Caco-2 cells
VDR [3] = target: T1, VDR; test: VDRE-luciferase reporter assay in Jurkat cells
IFNγ production = test: IFNγ inhibition assay in anti-CD3 activated splenocytes; details: for activity at 0.1 µM: Mus musculus, Splenocyte, 72 h, read-out: IFNγ (ratio ± SD)
[4] = low dose of 0.1 µg/kg; cited from earlier work
rat CYP24A1 = target: T2, rat CYP24A1 (Rattus norvegicus, UniProt Q09128); test: Kinetics of metabolism of analogs in phospholipid vesicles by rat CYP24A1; assay type: in vitro ADME; details: for Km: rat CYP24A1 0.14 µM, phospholipid vesicles, 1 min incubation, ± SE from curve fit
T2 construct: made in house; host or cells: E. coli
T2 sequence (Q09128 36-514): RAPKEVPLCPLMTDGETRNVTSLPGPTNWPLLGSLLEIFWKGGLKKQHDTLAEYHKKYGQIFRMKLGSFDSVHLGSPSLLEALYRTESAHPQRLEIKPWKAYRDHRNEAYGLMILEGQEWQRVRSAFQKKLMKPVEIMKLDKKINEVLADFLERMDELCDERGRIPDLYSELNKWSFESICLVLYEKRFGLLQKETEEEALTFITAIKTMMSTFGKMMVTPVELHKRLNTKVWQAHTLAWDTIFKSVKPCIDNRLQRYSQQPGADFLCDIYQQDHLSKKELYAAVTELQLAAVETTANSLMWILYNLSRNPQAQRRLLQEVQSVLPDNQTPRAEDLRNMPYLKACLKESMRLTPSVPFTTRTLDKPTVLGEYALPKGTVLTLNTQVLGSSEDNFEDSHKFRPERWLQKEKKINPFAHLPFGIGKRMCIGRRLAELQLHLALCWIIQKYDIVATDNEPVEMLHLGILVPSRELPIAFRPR
Procedure: An incubation time of 1 min was chosen to obtain the initial rate based on the time courses (Fig. 6) and previous studies[28],[29].
To test metabolism of each analog, they were incorporated into phospholipid vesicles made from dioleoyl phosphatidylcholine and cardiolipin by sonication, as before[24],[28]. […] Samples from incubations with CYP24A1 were extracted with dichloromethane and analysed by HPLC using a 25 cm Grace Alltima C18 column, as before[27],[28]. […] For the more polar 33, the acetonitrile gradient was 30% to 100% acetonitrile for 30 min then 100% acetonitrile for 20 min, at 0.5 mL/min.

mouse CYP27B1 = target: T3, mouse CYP27B1 (Mus musculus, UniProt O35084); test: Metabolism (1α-hydroxylation) of analogs by mouse CYP27B1; assay type: in vitro ADME; details: 0.018 mol/mol phospholipid, 0.8 µM mouse CYP27B1, 20 min, 37 °C
T3 construct: made in house; host or cells: E. coli
T3 sequence (O35084 1-507): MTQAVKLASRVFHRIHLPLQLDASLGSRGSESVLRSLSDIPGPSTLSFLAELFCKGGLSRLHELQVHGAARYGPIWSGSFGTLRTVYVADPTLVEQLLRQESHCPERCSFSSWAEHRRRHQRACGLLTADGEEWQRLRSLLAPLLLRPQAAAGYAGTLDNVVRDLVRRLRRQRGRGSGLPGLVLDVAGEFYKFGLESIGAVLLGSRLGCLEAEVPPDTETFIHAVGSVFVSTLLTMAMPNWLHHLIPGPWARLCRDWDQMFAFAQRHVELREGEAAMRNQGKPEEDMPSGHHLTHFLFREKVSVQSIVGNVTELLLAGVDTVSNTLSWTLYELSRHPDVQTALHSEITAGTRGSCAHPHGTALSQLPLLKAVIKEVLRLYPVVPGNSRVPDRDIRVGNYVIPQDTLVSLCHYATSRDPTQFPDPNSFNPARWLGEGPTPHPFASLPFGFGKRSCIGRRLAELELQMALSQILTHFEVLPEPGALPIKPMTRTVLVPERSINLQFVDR
Procedure: In order to make the 1α-OH derivatives of the 20S(OH)D3 analogs enzymatically, and to assess their likely capacity to be 1α-hydroxylated in vivo, the ability of mouse CYP27B1 to hydroxylate these metabolites was examined. 25(OH)D3, the major natural substrate for CYP27B1[2],[30], was included for comparison. The 20S(OH)D3 analogs were incorporated into phospholipid vesicles and incubated with CYP27B1, then the extent of their metabolism was determined by HPLC (Table 2). All analogs tested except 33 were metabolized by CYP27B1. In each case only a single metabolite was produced, assumed to be the 1α-OH derivative based on the known high specificity of the enzyme for the 1α-position[24],[30],[31]. […] Metabolism of 4 was almost twice that of 20S(OH)D3 and metabolism of 23 almost three fold. Thus, the modifications to C24 and/or C25 seen in 13, 4 and 23 enhanced their ability to be metabolized by CYP27B1. […] In contrast, the introduction of an amide linkage into the side chain, as in 33, prevented its hydroxylation by CYP27B1.
Rat CYP24A1, mouse CYP27B1 and adrenodoxin and human adrenodoxin reductase were expressed in E. coli and purified as described before[28],[30],[35]. To test metabolism of each analog, they were incorporated into phospholipid vesicles made from dioleoyl phosphatidylcholine and cardiolipin by sonication, as before[24],[28]. The substrates in vesicles (510 µM phospholipid) were incubated at 37 °C with either CYP24A1 (0.14 µM) or CYP27B1 (0.8 µM) in a reconstituted system containing adrenodoxin (15 µM) and adrenodoxin reductase (0.4 µM). Samples from incubations with CYP24A1 were extracted with dichloromethane and analysed by HPLC using a 25 cm Grace Alltima C18 column, as before[27],[28]. Products (except 33) were separated using an acetonitrile on water gradient (45% to 100% for 20 min then 100% acetonitrile for 40 min at a flow rate of 0.5 mL/min). For the more polar 33, the acetonitrile gradient was 30% to 100% acetonitrile for 30 min then 100% acetonitrile for 20 min, at 0.5 mL/min. Products from incubations with CYP27B1 were similarly extracted with dichloromethane and analyzed by reverse phase HPLC using a 15 cm Grace Smart C18 column and an acetonitrile in water gradient (10 min 45% to 100% acetonitrile then 20 min at 100% acetonitrile, at 0.5 mL/min).

SMILES | EC50 (VDR [1]) | EC50 (VDR [2]) | EC50 (VDR [3]) | Km (rat CYP24A1) | Product (% total secosteroids) (mouse CYP27B1) | fold induction at 0.1 µM (CYP24A1 gene expression) | activity at 0.1 µM (IFNγ production) | other results
C=C1/C(=C\C=C2/CCC[C@@]3(C)[C@H]2CC[C@@H]3[C@@](C)(O)CCOC(C)C)C[C@@H](O)C[C@@H]1O [compound 14] | 226 ± 3.5 nM | 188 ± 1.9 nM | 248 ± 5 nM | – | – | 2 | 62.8 ± 0.8% | –
C=C1/C(=C\C=C2/CCC[C@]3(C)[C@@H]([C@H](C)CCCC(C)(C)O)CC[C@@H]23)C[C@@H](O)C[C@@H]1O [1,25(OH)2D3, 1α,25-dihydroxyvitamin D3, reference compound] | – | – | – | – | – | – | – | calcemic effect [4]: substantial calcemic effect; decrease of IFNγ production level (IFNγ production; 100 nM): 60%
C=C1/C(=C\C=C2/CCC[C@@]3(C)[C@H]2CC[C@@H]3[C@@](C)(O)CCC=C(C)C)C[C@@H](O)C[C@@H]1O [compound 5] | 198 ± 8.1 nM | 182 ± 6.1 nM | 237 ± 5.5 nM | – | – | 149 | 38.1 ± 1.7% | –
C=C1CC[C@H](O)C/C1=C/C=C1\CCC[C@@]2(C)[C@H]1CC[C@@H]2[C@@](C)(O)CCC=C(C)C [compound 4] | 460 ± 36.5 nM | 580 ± 19.2 nM | 439 ± 25.7 nM | 2.0 ± 1.7 mmol/mol PL | 40.6 % total secosteroids | 32.4 | 83.2 ± 2.3% | kcat, fold lower than for 1,25(OH)2D3 (rat CYP24A1; rat CYP24A1): approximately 4 fold
C=C1/C(=C\C=C2/CCC[C@]3(C)[C@@H]([C@H](C)OCCC(C)(C)O)CC[C@@H]23)C[C@@H](O)C[C@@H]1O [22-Oxa, reference compound] | – | – | – | – | – | – | – | relative mRNA level for CYP24A1 versus vehicle control (CYP24A1 gene expression): 77.5 fold; EC50 (VDR [1]; read-out: VDRE stimulation (EC50 ± SD, nM) HaCaT, HaCaT cells, 24 h, NS: no significance): 40.1 ± 1.5 nM; EC50 (VDR [2]; read-out: VDRE stimulation (EC50 ± SD, nM) Caco-2, Caco-2 cells, 24 h, NS: no significance): 42.5 ± 1.6 nM; EC50 (VDR [3]; read-out: VDRE stimulation (EC50 ± SD, nM) Jurkat, Jurkat cells, 24 h, NS: no significance): 2.9 ± 0.3 nM; decrease of IFNγ production level (IFNγ production; 100 nM): 51%; IFNγ (ratio ± SD) (IFNγ production; ratio to control (1.000), 100 nM, mouse splenocytes, anti-CD3, 72 h): 0.487 ± 0.017
C=C1CC[C@H](O)C/C1=C/C=C1\CCC[C@]2(C)[C@@H]([C@H](C)CCCC(C)(C)O)CC[C@@H]12 [25(OH)D3, 25-hydroxyvitamin D3, reference compound] | – | – | – | – | 86.0 % total secosteroids | – | – | –

The next lines start with results.

EC50 (VDR [1]) | EC50 (VDR [2]) | EC50 (VDR [3]) | Km (rat CYP24A1) | Product (% total secosteroids) (mouse CYP27B1) | SMILES | fold induction at 0.1 µM (CYP24A1 gene expression) | activity at 0.1 µM (IFNγ production) | other results
– | – | – | 15.4 ± 1.7 mmol/mol PL | 0 % total secosteroids | C=C1CC[C@H](O)C/C1=C/C=C1\CCC[C@]2(C)[C@@H](C(C)(O)CC(=O)NC(C)C)CC[C@@H]12 (stereo partly shown) [compound 33] | 1.2 | 62.8 ± 1.4% | catalytic efficiency, fold lower than for 13 (rat CYP24A1; rat CYP24A1): 13 fold; kcat, fold lower than for 1,25(OH)2D3 (rat CYP24A1; rat CYP24A1): approximately 4 fold
254 ± 7.9 nM | 236 ± 4.1 nM | 305 ± 4.5 nM | – | – | C=C1/C(=C\C=C2/CCC[C@@]3(C)[C@H]2CC[C@@H]3[C@@](C)(O)CCC(F)(F)C(C)C)C[C@@H](O)C[C@@H]1O [compound 24] | 2.3 | 56 ± 1% | –
– | – | – | 11.6 ± 3.1 mmol/mol PL | 57.1 % total secosteroids | C=C1CC[C@H](O)C/C1=C/C=C1\CCC[C@@]2(C)[C@H]1CC[C@@H]2[C@@](C)(O)CCC(F)(F)C(C)C [compound 23] | 0.9 | 69.8 ± 3.1% | Km, fold lower than that for 20S(OH)D3 (rat CYP24A1; rat CYP24A1): 3–4 fold
